# According to US10597388B2, “Pyridazinone herbicides” (FMC CORPORATION, priority 2014, dated 2020):
# What was measured:
# Type in all cases: in vivo
# [1] = test system: blackgrass (Alopecurus myosuroides); assay: Test A greenhouse herbicide test, postemergence
# From the text: (§1) At the same time, plants selected from these crop and weed species and also blackgrass (Alopecurus myosuroides), and galium (catchweed bedstraw, Galium aparine) were planted in pots containing the same blend of loam soil and sand and treated with postemergence applications of test chemicals formulated in the same manner. Plants ranged in height from 2 to 10 cm and were in the one- to two-leaf stage for the postemergence treatment. Treated plants and untreated controls were maintained in a greenhouse for approximately 10 d, after which time all treated plants were compared to untreated controls and visually evaluated for injury. Plant response ratings, summarized in Table A, are based on a 0 to 100 scale where 0 is no effect and 100 is complete control. A dash (-) response means no test result.
# [2] = test system: galium (catchweed bedstraw, Galium aparine); assay: Test A greenhouse herbicide test, postemergence
# From the text: as §1
# [3] = test system: ragweed (common ragweed, Ambrosia elatior); assay: Test A greenhouse herbicide test, pre- and postemergence
# From the text: (§2) Seeds of plant species selected from barnyardgrass (Echinochloa crus-galli), kochia (Kochia scoparia), ragweed (common ragweed, Ambrosia elatior), ryegrass, Italian (Italian ryegrass, Lolium multiflorum), crabgrass, large (large crabgrass, Digitaria sanguinalis), foxtail, giant (giant foxtail, Setaria faberii), momingglory (Ipomoea spp.), pigweed (Amaranthus retroflexus), velvetleaf (Abutilon theophrasti), wheat (Triticum aestivum), and corn (Zea mays) were planted into a blend of loam soil and sand and treated preemergence with a directed soil spray using test chemicals formulated in a non-phytotoxic solvent mixture which included a surfactant.
# as §1
# [4] = test system: wheat (Triticum aestivum); assay: as above; details: Postemergence
# From the text: as §2, §1
# [5] = test system: barnyardgrass (Echinochloa crus-galli); assay: as above
# From the text: as §2, §1
# [6] = test system: pigweed (Amaranthus retroflexus); assay: as above
# From the text: as §2, §1
# [7] = test system: foxtail, giant (giant foxtail, Setaria faberii); assay: as above
# From the text: as §2, §1
# corn (Zea mays) = assay: as above; details: Postemergence
# From the text: as §2, §1
# kochia (Kochia scoparia) = assay: as above
# From the text: as §2, §1
# [8] = test system: ryegrass, Italian (Italian ryegrass, Lolium multiflorum); assay: as above
# From the text: as §2, §1
# [9] = test system: sedge, umbrella (small-flower umbrella sedge, Cyperus difformis); assay: Test B flooded paddy test; details: 250 g ai/ha, Flood; visual rating on scale of 0 to 100 where 0 is no effect and 100 is complete control; 13 to 15 d after treatment
# Description: (§3) Plant species in the flooded paddy test selected from rice (Oryza sativa), sedge, umbrella (small-flower umbrella sedge, Cyperus difformis), ducksalad (Heteranthera limosa), and barnyardgrass (Echinochloa crus-galli) were grown to the 2-leaf stage for testing. At time of treatment, test pots were flooded to 3 cm above the soil surface, treated by application of test compounds directly to the paddy water, and then maintained at that water depth for the duration of the test. Treated plants and controls were maintained in a greenhouse for 13 to 15 d, after which time all species were compared to controls and visually evaluated. Plant response ratings, summarized in Table B, are based on a scale of 0 to 100 where 0 is no effect and 100 is complete control. A dash (-) response means no test result.
# [10] = test system: barnyardgrass (Echinochloa crus-galli); assay: Test B flooded paddy test; details: 250 g ai/ha, Flood; visual rating on scale of 0 to 100 where 0 is no effect and 100 is complete control; 13 to 15 d after treatment
# Description: as §3
# [11] = test system: ducksalad (Heteranthera limosa); assay: Test B flooded paddy test; details: 250 g ai/ha, Flood; visual rating on scale of 0 to 100 where 0 is no effect and 100 is complete control; 13 to 15 d after treatment
# Description: as §3
# rice (Oryza sativa) = assay: Test B flooded paddy test; details: 250 g ai/ha, Flood; visual rating on scale of 0 to 100 where 0 is no effect and 100 is complete control; 13 to 15 d after treatment
# Description: as §3
# [12] = 125 g ai/ha, 0 to 100 scale where 0 is no effect and 100 is complete control
# [13] = 500 g ai/ha, visual rating after approx. 10 d, 0 to 100 scale (0 no effect, 100 complete control)
# [14] = Postemergence, 125 g ai/ha, 0 to 100 scale where 0 is no effect and 100 is complete control
# [15] = Postemergence, 500 g ai/ha, visual rating after approx. 10 d, 0 to 100 scale (0 no effect, 100 complete control)
# [16] = Preemergence, 125 g ai/ha, 0 to 100 scale where 0 is no effect and 100 is complete control
# [17] = Preemergence, 500 g ai/ha, 0 to 100 scale where 0 is no effect and 100 is complete control
# [18] = 1000 g ai/ha, 0 to 100 scale, 0 is no effect, 100 is complete control
# [19] = Postemergence, 1000 g ai/ha, 0 to 100 scale, 0 is no effect, 100 is complete control
# [20] = Preemergence, 1000 g ai/ha, 0 to 100 scale, 0 no effect, 100 complete control
# [21] = 125 g ai/ha, 0 to 100 scale, 0 no effect, 100 complete control
# [22] = Postemergence, 125 g ai/ha, 0 to 100 scale, 0 no effect, 100 complete control
# [23] = Preemergence, 125 g ai/ha, visual injury rating, 0 to 100 scale (0 no effect, 100 complete control), approx. 10 d
# [24] = Preemergence, second run of lines under the 500 g ai/ha head, rate not given, 0 to 100 scale
Compound,"Plant response rating, Blackgrass [1, 13]","Plant response rating, Galium [2, 13]","Plant response rating, Ragweed [3, 15]","Plant response rating, Ragweed [3, 17]","Plant response rating, Wheat [4, 13]","Plant response rating, Barnyardgrass [5, 15]","Plant response rating, Barnyardgrass [5, 17]","Plant response rating, Pigweed [6, 15]","Plant response rating, Pigweed [6, 17]","Plant response rating, Foxtail, Giant [7, 15]","Plant response rating, Foxtail, Giant [7, 17]","Plant response rating, Corn (corn (Zea mays); [13])","Plant response rating, Kochia (kochia (Kochia scoparia); [15])","Plant response rating, Kochia (kochia (Kochia scoparia); [17])","Plant response rating, Ryegrass, Italian [8, 15]","Plant response rating, Ryegrass, Italian [8, 17]","Plant response rating, Sedge, Umbrella [9]","Plant response rating, Barnyardgrass [10]","Plant response rating, Ducksalad [11]","Plant response rating, Rice (rice (Oryza sativa))",other results
CC(=O)Oc1ccc2cccc(-c3c(OC(C)=O)c(C)nn(C)c3=O)c2c1 [Compound 124],0,30,0,0,0,30,0,0,0,0,0,0,0,20,0,30,0,0,0,0,"Plant response rating, Blackgrass [1, 12]: 0; Plant response rating, Galium [2, 12]: 0; Plant response rating, Ragweed [3, 14]: 0; Ragweed plant response rating [3, 16]: 0; Plant response rating, Wheat [4, 12]: 0; Plant response rating, Barnyardgrass [5, 14]: 20; Barnyardgrass plant response rating [5, 16]: 0; Plant response rating, Pigweed [6, 14]: 0; Pigweed plant response rating [6, 16]: 0; Plant response rating, Foxtail, Giant [7, 14]: 0; Foxtail, Giant plant response rating [7, 16]: 0; Plant response rating, Corn (corn (Zea mays); [12]): 0; Plant response rating, Kochia (kochia (Kochia scoparia); [14]): 0; Kochia plant response rating (kochia (Kochia scoparia); [16]): 0; Plant response rating, Ryegrass, Italian [8, 14]: 0; Ryegrass, Italian plant response rating [8, 16]: 0"
Cc1nn(C)c(=O)c(-c2cccc3ccccc23)c1OCC(=O)c1ccccc1 [Compound 184],–,–,–,–,–,–,–,–,–,–,–,–,–,–,–,–,0,0,0,0,"Blackgrass plant response rating [1, 18]: 30; Galium plant response rating [2, 18]: 90; Ragweed plant response rating [3, 19]: 30; Plant response rating, Ragweed [3, 20]: 70; Wheat plant response rating [4, 18]: 0; Barnyardgrass plant response rating [5, 19]: 20; Plant response rating, Barnyardgrass [5, 20]: 10; Pigweed plant response rating [6, 19]: 80; Plant response rating, Pigweed [6, 20]: 90; Foxtail, Giant plant response rating [7, 19]: 20; Plant response rating, Foxtail, Giant [7, 20]: 30; Corn plant response rating (corn (Zea mays); [18]): 0; Kochia plant response rating (kochia (Kochia scoparia); [19]): 80; Plant response rating, Kochia (kochia (Kochia scoparia); [20]): 20; Ryegrass, Italian plant response rating [8, 19]: 80; Plant response rating, Ryegrass, Italian [8, 20]: 90"
Cc1n[nH]c(=O)c(-c2cccc3ccccc23)c1OC(F)F [Compound 175],20,0,0,20,20,0,0,0,60,0,0,20,0,20,30,20,0,0,0,0,"Plant response rating, Blackgrass [1, 21]: 0; Plant response rating, Galium [2, 21]: 0; Plant response rating, Ragweed [3, 22]: 0; Plant response rating, Ragweed [3, 23]: 0; Plant response rating, Wheat [4, 21]: 0; Plant response rating, Barnyardgrass [5, 22]: 0; Plant response rating, Barnyardgrass [5, 23]: 0; Plant response rating, Pigweed [6, 22]: 0; Plant response rating, Pigweed [6, 23]: 0; Plant response rating, Foxtail, Giant [7, 22]: 0; Plant response rating, Foxtail, Giant [7, 23]: 0; Plant response rating, Corn (corn (Zea mays); [21]): 0; Plant response rating, Kochia (kochia (Kochia scoparia); [22]): 0; Plant response rating, Kochia (kochia (Kochia scoparia); [23]): 0; Plant response rating, Ryegrass, Italian [8, 22]: 20; Plant response rating, Ryegrass, Italian [8, 23]: 20"
CCc1nn(C)c(=O)c(-c2c(C)oc3ccccc23)c1O [Compound 117],0,0,0,0,0,40,50,20,30,20,30,0,10,0,0,0,0,0,0,0,"Plant response rating, Blackgrass [1, 12]: 0; Plant response rating, Galium [2, 12]: 0; Plant response rating, Ragweed [3, 14]: 0; Ragweed plant response rating [3, 16]: 0; Plant response rating, Wheat [4, 12]: 0; Plant response rating, Barnyardgrass [5, 14]: 0; Barnyardgrass plant response rating [5, 16]: 0; Plant response rating, Pigweed [6, 14]: 0; Pigweed plant response rating [6, 16]: 0; Plant response rating, Foxtail, Giant [7, 14]: 0; Foxtail, Giant plant response rating [7, 16]: 0; Plant response rating, Corn (corn (Zea mays); [12]): 0; Plant response rating, Kochia (kochia (Kochia scoparia); [14]): 0; Kochia plant response rating (kochia (Kochia scoparia); [16]): 0; Plant response rating, Ryegrass, Italian [8, 14]: 0; Ryegrass, Italian plant response rating [8, 16]: 0"
Cc1nn(C)c(=O)c(-c2ccc(Cl)c3ccccc23)c1OP(C)(C)=O [Compound 187],70,100,100,80,30,80,90,90,100,80,70,30,100,100,100,100,0,0,0,20,"Plant response rating, Blackgrass [1, 21]: 40; Plant response rating, Galium [2, 21]: 90; Plant response rating, Ragweed [3, 22]: 100; Plant response rating, Ragweed [3, 24]: 70; Plant response rating, Wheat [4, 21]: 0; Plant response rating, Barnyardgrass [5, 22]: 30; Plant response rating, Barnyardgrass [5, 24]: 70; Plant response rating, Pigweed [6, 22]: 70; Plant response rating, Pigweed [6, 24]: 90; Plant response rating, Foxtail, Giant [7, 22]: 50; Plant response rating, Foxtail, Giant [7, 24]: 20; Plant response rating, Corn (corn (Zea mays); [21]): 0; Plant response rating, Kochia (kochia (Kochia scoparia); [22]): 90; Plant response rating, Kochia (kochia (Kochia scoparia); [24]): 60; Plant response rating, Ryegrass, Italian [8, 22]: 100; Plant response rating, Ryegrass, Italian [8, 24]: 100"
